pEC50: −log10 of the molar value. Values joined by “and” are separate entries in the source; they are usually repeats but may differ in a detail not shown here. Equal entries are not always repeated.
Columns and labels:
Type in all cases: cell-based
HIV-1 92/HT/599 = HIV-1 92/HT/599 replication in human PBMCs, reverse transcriptase in culture supernatants (RLU)
Experimental: (§1) In these studies, PHA-P stimulated PBMCs from three donors were pooled together and re-suspended in fresh tissue culture medium at 1×10^6 cells/mL and plated in the interior wells of a 96 well round bottom microplate at 50µl/well. A 100µL volume of 9 concentrations of compound serially diluted were transferred to the round-bottom 96 well plate containing the cells in triplicate. Fifty microliters (µL) of HIV-1 at a pre-determined dilution was added. Each plate contained cell control wells and virus control wells in parallel with the experimental wells. After 7 days in culture, efficacy was evaluated by measuring the reverse transcriptase in the culture supernatants and the cells were stained with the tetrazolium dye XTT to evaluate cytotoxicity.

[1] = Cytotoxicity in human PBMCs (XTT); conditions: PHA-P stimulated PBMCs pooled from three donors; human PBMCs, XTT
Experimental: as §1

HUMAN PBMCS = test: Cytotoxicity in human PBMCs (XTT); conditions: for TOXICITY VALUES (XTT - O.D. @ 450/650 nm), SAMPLE: individual samples
Experimental: as §1

Structure (SMILES): Cc1cn([C@H]2C[C@H](N=[N+]=[N-])[C@@H](CO)O2)c(=O)[nH]c1=O [AZT, Zidovudine, reference compound]
- % Virus Control (HIV-1 92/HT/599; 0.003 μM): 28.53%
- Antiviral Test Values Mean RLU (HIV-1 92/HT/599; 0.003 μM): 5503.7 RLU
- % Virus Control (HIV-1 92/HT/599; 0.01 μM): 10.36%
- Antiviral Test Values Mean RLU (HIV-1 92/HT/599; 0.01 μM): 1999.0 RLU
- % Virus Control (HIV-1 92/HT/599; 0.032 μM): 13.16%
- Antiviral Test Values Mean RLU (HIV-1 92/HT/599; 0.032 μM): 2538.7 RLU
- % Virus Control (HIV-1 92/HT/599; 0.32 μM): 0.99%
- Antiviral Test Values Mean RLU (HIV-1 92/HT/599; 0.32 μM): 190.7 RLU
- % Virus Control (HIV-1 92/HT/599; 1 μM): 0.56%
- Antiviral Test Values Mean RLU (HIV-1 92/HT/599; 1 μM): 112.7 RLU
- EC 25% (HIV-1 92/HT/599; HIV-1 92/HT/599, human PBMCs): <3 nM
- EC 95% (HIV-1 92/HT/599; HIV-1 92/HT/599, human PBMCs): 99 nM
- pEC50 (HIV-1 92/HT/599; Human immunodeficiency virus 1, PBMC, read-out: EC50 (EC 50%), HIV-1 92/HT/599, human PBMCs): > 8.52
- CC50 at 7 days [1]: > 1000 nM
- % Cell Viability (HUMAN PBMCS; 0.003 μM): 114.74%
- TOXICITY VALUES (XTT - O.D. @ 450/650 nm), SAMPLE (HUMAN PBMCS; 0.003 μg/ml (so in the source)): 1.2555 O.D. and 1.2949 O.D. and 1.3058 O.D.
- % Cell Viability (HUMAN PBMCS; 0.01 μM): 123.74%
- TOXICITY VALUES (XTT - O.D. @ 450/650 nm), SAMPLE (HUMAN PBMCS; 0.01 μg/ml (so in the source)): 1.2369 O.D. and 1.6369 O.D.
- % Cell Viability (HUMAN PBMCS; 0.032 μM): 111.47%
- TOXICITY VALUES (XTT - O.D. @ 450/650 nm), SAMPLE (HUMAN PBMCS; 0.032 μg/ml (so in the source)): 1.2990 O.D. and 1.2908 O.D. and 1.1569 O.D.
- % Cell Viability (HUMAN PBMCS; 0.32 μM): 92.20%
- TOXICITY VALUES (XTT - O.D. @ 450/650 nm), SAMPLE (HUMAN PBMCS; 0.32 μg/ml (AZT table)): 0.9607 O.D. and 0.9984 O.D. and 1.1398 O.D.
- % Cell Viability (HUMAN PBMCS; 1 μM): 81.66%
- TOXICITY VALUES (XTT - O.D. @ 450/650 nm), SAMPLE (HUMAN PBMCS; 1 μg/ml (AZT table)): 1.1224 O.D. and 0.5742 O.D. and 1.0479 O.D.
- TC 25% (HUMAN PBMCS; human PBMCs, XTT): >1000 nM
- TC 95% (HUMAN PBMCS; human PBMCs, XTT): >1000 nM

— patent publication US9877956B2, “Antiviral compounds and methods of use thereof” (Trana Discovery, Inc., priority 2014, dated 2018)
